Data as given in publication PMC5218480 (PLoS ONE, 2017).

Tested on: MV-4-11 cells
Experiment: Gene expression microarray analysis (Affymetrix PrimeView) and GSEA
Format: cell-based, human
Design: RFU PODN (11730768_x_at) / Fold change /veh PODN (11730768_x_at) / RFU LINC00158 (11744669_a_at) / Fold change /veh LINC00158 (11744669_a_at) / RFU DUSP10 (11751237_a_at) / Fold change /veh DUSP10 (11751237_a_at) / RFU ID3 (11757404_x_at) / Fold change /veh ID3 (11757404_x_at) / RFU PLEKHG5 (11737974_s_at) / Fold change /veh PLEKHG5 (11737974_s_at) / RFU LRRC4B (11730491_at) / Fold change /veh LRRC4B (11730491_at) / RFU GIMAP4 (11747438_a_at) / Fold change /veh GIMAP4 (11747438_a_at) / RFU KRT8 (11758183_x_at) / Fold change /veh KRT8 (11758183_x_at) / RFU CNN1 (11734310_a_at) / Fold change /veh CNN1 (11734310_a_at) / RFU VPS37D (11726825_at) / Fold change /veh VPS37D (11726825_at) / RFU C10orf10 (11716522_x_at) / Fold change /veh C10orf10 (11716522_x_at) / RFU KIR2DL2 /// KIR2DL4 /// KIR2DL5A /// KIR2DL5B /// KIR2DS1 /// KIR2DS2 /// KIR2DS3 /// KIR2DS4 /// KIR3DL3 /// KIR3DL3 /// KIR3DS1 (11738374_at) / Fold change /veh KIR2DL2 /// KIR2DL4 /// KIR2DL5A /// KIR2DL5B /// KIR2DS1 /// KIR2DS2 /// KIR2DS3 /// KIR2DS4 /// KIR3DL3 /// KIR3DL3 /// KIR3DS1 (11738374_at) / RFU C1QL1 (11718748_at) / Fold change /veh C1QL1 (11718748_at) / RFU TMPRSS4 (11747572_a_at) / Fold change /veh TMPRSS4 (11747572_a_at) / RFU HAMP (11756126_x_at) / Fold change /veh HAMP (11756126_x_at) / RFU RNFT2 (11725882_a_at) / Fold change /veh RNFT2 (11725882_a_at) / RFU NR4A2 (11747474_a_at) / Fold change /veh NR4A2 (11747474_a_at) / RFU ABCC12 (11746883_a_at) / Fold change /veh ABCC12 (11746883_a_at) / RFU TMEM136 (11760407_x_at) / Fold change /veh TMEM136 (11760407_x_at) / RFU CLDN22 /// WWC2 (11732394_at) / Fold change /veh CLDN22 /// WWC2 (11732394_at) / RFU HLA-DPB1 (11760878_x_at) / Fold change /veh HLA-DPB1 (11760878_x_at) / RFU SPINT1 (11716480_a_at) / Fold change /veh SPINT1 (11716480_a_at) / RFU GAP43 (11754022_s_at) / Fold change /veh GAP43 (11754022_s_at) / RFU A4GNT (11735810_at) / Fold change /veh A4GNT (11735810_at) / RFU PRB3 (11715151_x_at) / Fold change /veh PRB3 (11715151_x_at) / RFU TUBB4B (11761932_at) / Fold change /veh TUBB4B (11761932_at) / RFU CAPN14 (11732068_a_at) / Fold change /veh CAPN14 (11732068_a_at) / RFU TMCC2 (11721928_a_at) / Fold change /veh TMCC2 (11721928_a_at) / RFU IRGQ (11745062_a_at) / Fold change /veh IRGQ (11745062_a_at) / RFU FAM174B (11720279_a_at) / Fold change /veh FAM174B (11720279_a_at) / RFU TMPRSS4 (11748680_a_at) / Fold change /veh TMPRSS4 (11748680_a_at) / RFU FAM212B (11763350_a_at) / Fold change /veh FAM212B (11763350_a_at) / RFU PLEKHG5 (11743358_a_at) / Fold change /veh PLEKHG5 (11743358_a_at) / RFU ZSCAN30 (11745921_a_at) / Fold change /veh ZSCAN30 (11745921_a_at) / RFU CMKLR1 (11741424_a_at) / Fold change /veh CMKLR1 (11741424_a_at) / RFU LOC101060620 /// MAPK8IP1 (11723275_at) / Fold change /veh LOC101060620 /// MAPK8IP1 (11723275_at) / RFU SPTSSB (11747773_x_at) / Fold change /veh SPTSSB (11747773_x_at) / RFU PRSS12 (11739890_at) / Fold change /veh PRSS12 (11739890_at) / RFU BIN1 (11741810_x_at) / Fold change /veh BIN1 (11741810_x_at) / RFU WNT11 (11732464_a_at) / Fold change /veh WNT11 (11732464_a_at) / RFU C10orf10 (11716521_a_at) / Fold change /veh C10orf10 (11716521_a_at) / RFU C5orf56 (11738089_at) / Fold change /veh C5orf56 (11738089_at) / RFU CYB561 (11721691_x_at) / Fold change /veh CYB561 (11721691_x_at) / RFU ANKRD19P (11752326_a_at) / Fold change /veh ANKRD19P (11752326_a_at) / RFU OR2T12 /// OR2T33 /// OR2T8 (11738714_s_at) / Fold change /veh OR2T12 /// OR2T33 /// OR2T8 (11738714_s_at) / RFU VCAN (11748164_a_at) / Fold change /veh VCAN (11748164_a_at) / RFU JSRP1 (11732532_at) / Fold change /veh JSRP1 (11732532_at) / RFU KRTAP10-11 (11738290_x_at) / Fold change /veh KRTAP10-11 (11738290_x_at) / RFU MYO3A (11730013_a_at) / Fold change /veh MYO3A (11730013_a_at) / RFU EBF3 (11725865_a_at) / Fold change /veh EBF3 (11725865_a_at) / RFU CAMK2N1 (11719241_x_at) / Fold change /veh CAMK2N1 (11719241_x_at) / RFU C5orf56 (11738088_a_at) / Fold change /veh C5orf56 (11738088_a_at) / RFU OLFML3 (11715873_a_at) / Fold change /veh OLFML3 (11715873_a_at) / RFU LOC100653217 /// NTM (11731650_a_at) / Fold change /veh LOC100653217 /// NTM (11731650_a_at) / RFU MAPK11 (11762145_a_at) / Fold change /veh MAPK11 (11762145_a_at) / RFU FIZ1 (11724087_x_at) / Fold change /veh FIZ1 (11724087_x_at) / RFU OASL (11726364_x_at) / Fold change /veh OASL (11726364_x_at) / RFU SOX15 (11748057_x_at) / Fold change /veh SOX15 (11748057_x_at) / RFU CD79A (11719716_a_at) / Fold change /veh CD79A (11719716_a_at) / RFU HIST1H1D (11736915_at) / Fold change /veh HIST1H1D (11736915_at) / RFU CASKIN2 (11723855_a_at) / Fold change /veh CASKIN2 (11723855_a_at) / RFU LOC730098 (11760151_x_at) / Fold change /veh LOC730098 (11760151_x_at) / RFU OR4N2 (11742367_at) / Fold change /veh OR4N2 (11742367_at) / RFU PRRT2 (11749266_a_at) / Fold change /veh PRRT2 (11749266_a_at) / RFU SNX32 (11753110_a_at) / Fold change /veh SNX32 (11753110_a_at) / RFU CDHR5 (11726645_a_at) / Fold change /veh CDHR5 (11726645_a_at) / RFU RCAN1 (11760418_a_at) / Fold change /veh RCAN1 (11760418_a_at) / RFU FAM167A (11723789_a_at) / Fold change /veh FAM167A (11723789_a_at) / RFU FAM26E (11764081_at) / Fold change /veh FAM26E (11764081_at) / RFU ISYNA1 (11749810_s_at) / Fold change /veh ISYNA1 (11749810_s_at) / RFU ACY1 (11761880_at) / Fold change /veh ACY1 (11761880_at) / RFU 11764098_at / Fold change /veh 11764098_at / RFU SAMD14 (11745864_x_at) / Fold change /veh SAMD14 (11745864_x_at) / RFU NPB (11741838_a_at) / Fold change /veh NPB (11741838_a_at) / RFU TMPRSS6 (11731388_a_at) / Fold change /veh TMPRSS6 (11731388_a_at) / RFU KRTAP10-2 (11738614_at) / Fold change /veh KRTAP10-2 (11738614_at) / RFU ARHGAP8 /// PRR5-ARHGAP8 (11727945_x_at) / Fold change /veh ARHGAP8 /// PRR5-ARHGAP8 (11727945_x_at) / RFU KRTAP5-7 /// NADSYN1 (11734609_at) / Fold change /veh KRTAP5-7 /// NADSYN1 (11734609_at) / RFU RASL12 (11751679_a_at) / Fold change /veh RASL12 (11751679_a_at) / RFU CDKN2B (11736163_a_at) / Fold change /veh CDKN2B (11736163_a_at) / RFU PRF1 (11729649_at) / Fold change /veh PRF1 (11729649_at) / RFU, ZNF638 /// ZNF638-IT1 / Fold change vs veh, ZNF638 /// ZNF638-IT1 / RFU, PANK3 / Fold change vs veh, PANK3 / RFU, SH3YL1 / Fold change vs veh, SH3YL1 / RFU, ZEB2 / Fold change vs veh, ZEB2 / RFU, NRIP1 / Fold change vs veh, NRIP1 / RFU, PTTG1IP / Fold change vs veh, PTTG1IP / RFU, CAPN2 / Fold change vs veh, CAPN2 / RFU, MED14 / Fold change vs veh, MED14 / RFU, SNORA58 / Fold change vs veh, SNORA58 / RFU, C1orf63 / Fold change vs veh, C1orf63 / RFU, LRRFIP1 / Fold change vs veh, LRRFIP1 / RFU, NDUFAF7 / Fold change vs veh, NDUFAF7 / RFU, SLC12A2 / Fold change vs veh, SLC12A2 / RFU, IBTK / Fold change vs veh, IBTK / RFU, ESF1 / Fold change vs veh, ESF1 / Fold change vs veh, TMEM50B / RFU, TAOK1 / Fold change vs veh, TAOK1 / RFU, ACBD3 / Fold change vs veh, ACBD3 / RFU, TMA16 / Fold change vs veh, TMA16 / RFU, RWDD3 / Fold change vs veh, RWDD3 / RFU, BCAT1 / Fold change vs veh, BCAT1 / RFU, EDEM3 / Fold change vs veh, EDEM3 / RFU, TMEM33 / Fold change vs veh, TMEM33 / RFU, WDR75 / Fold change vs veh, WDR75 / RFU, AHCTF1 / Fold change vs veh, AHCTF1 / RFU, TFRC / Fold change vs veh, TFRC / RFU, ZDHHC17 / Fold change vs veh, ZDHHC17 / RFU, NOM1 / Fold change vs veh, NOM1 / RFU, ARL8B / Fold change vs veh, ARL8B / RFU, ZBTB11 / Fold change vs veh, ZBTB11 / RFU, TAMM41 / Fold change vs veh, TAMM41 / RFU, KIAA1704 /// LOC100996395 / Fold change vs veh, KIAA1704 /// LOC100996395 / RFU, ING1 / Fold change vs veh, ING1 / RFU, TRMT61B / Fold change vs veh, TRMT61B / RFU, FUBP3 / Fold change vs veh, FUBP3 / RFU, TP53 / Fold change vs veh, TP53 / RFU, TNKS2 / Fold change vs veh, TNKS2 / RFU, ZFP14 / Fold change vs veh, ZFP14 / RFU, ACTR2 / Fold change vs veh, ACTR2 / RFU, PPP3R1 / Fold change vs veh, PPP3R1 / RFU, PIK3R1 / Fold change vs veh, PIK3R1 / RFU, HNRNPA1 / Fold change vs veh, HNRNPA1 / RFU, RNF170 / Fold change vs veh, RNF170 / RFU, ZNF28 / Fold change vs veh, ZNF28 / RFU, RNGTT / Fold change vs veh, RNGTT / RFU, OGT / Fold change vs veh, OGT / RFU, BRD1 / Fold change vs veh, BRD1 / RFU, MARS / Fold change vs veh, MARS / RFU, ZNF655 / Fold change vs veh, ZNF655 / RFU, FAHD1 / Fold change vs veh, FAHD1 / RFU, BDP1 / Fold change vs veh, BDP1 / RFU, LRRCC1 / Fold change vs veh, LRRCC1 / RFU, ARID1A / Fold change vs veh, ARID1A / RFU, ZNF146 / Fold change vs veh, ZNF146 / RFU, ZNF330 / Fold change vs veh, ZNF330 / RFU, GPN3 / Fold change vs veh, GPN3 / RFU, C9orf123 / Fold change vs veh, C9orf123 / RFU, N4BP2L2 / Fold change vs veh, N4BP2L2 / RFU, ARFIP1 / Fold change vs veh, ARFIP1 / RFU, FAM179B / Fold change vs veh, FAM179B / RFU, BCL10 / Fold change vs veh, BCL10 / RFU, UHRF1BP1L / Fold change vs veh, UHRF1BP1L / RFU, BET1 / Fold change vs veh, BET1 / RFU, CNOT2 / Fold change vs veh, CNOT2 / RFU, ZNF268 / Fold change vs veh, ZNF268 / Fold change vs veh, ZNF507 / RFU, DGCR2 / Fold change vs veh, DGCR2 / RFU, WDSUB1 / Fold change vs veh, WDSUB1 / Fold change vs veh, HSP90B1 /// MIR3652 / RFU, ADSS / Fold change vs veh, ADSS / RFU, GK / Fold change vs veh, GK / RFU, ZNF148 / Fold change vs veh, ZNF148 / RFU, TAF9 / Fold change vs veh, TAF9 / RFU, SLC1A5 / Fold change vs veh, SLC1A5 / RFU, SLMO2 / Fold change vs veh, SLMO2 / RFU, ABCC4 / Fold change vs veh, ABCC4 / RFU, LOC101060439 /// RAP1B / Fold change vs veh, LOC101060439 /// RAP1B / RFU, RFX7 / Fold change vs veh, RFX7 / RFU, GTPBP10 / Fold change vs veh, GTPBP10 / RFU, CNEP1R1 / Fold change vs veh, CNEP1R1 / RFU, BIVM-ERCC5 /// ERCC5 / Fold change vs veh, BIVM-ERCC5 /// ERCC5 / RFU, ILF3 / Fold change vs veh, ILF3 / RFU 11762660_at / Fold change /veh 11762660_at / RFU VCAN (11757783_s_at) / Fold change /veh VCAN (11757783_s_at) / RFU DDX43 (11728927_at) / Fold change /veh DDX43 (11728927_at) / RFU KRT8 (11758188_x_at) / Fold change /veh KRT8 (11758188_x_at) / RFU NKD1 (11759106_at) / Fold change /veh NKD1 (11759106_at) / RFU SRD5A1 (11742802_a_at) / Fold change /veh SRD5A1 (11742802_a_at) / RFU TPSAB1 /// TPSB2 (11721975_s_at) / Fold change /veh TPSAB1 /// TPSB2 (11721975_s_at) / RFU GSTM3 (11746129_a_at) / Fold change /veh GSTM3 (11746129_a_at) / RFU IL23R (11737362_x_at) / Fold change /veh IL23R (11737362_x_at) / RFU TMEM51 (11727254_a_at) / Fold change /veh TMEM51 (11727254_a_at) / RFU PIWIL2 (11732686_x_at) / Fold change /veh PIWIL2 (11732686_x_at) / RFU ORM1 (11744905_x_at) / Fold change /veh ORM1 (11744905_x_at) / RFU CCDC152 (11743942_at) / Fold change /veh CCDC152 (11743942_at) / RFU ECM1 (11717891_a_at) / Fold change /veh ECM1 (11717891_a_at) / RFU IL23R (11748794_a_at) / Fold change /veh IL23R (11748794_a_at) / RFU TNFAIP8L3 (11732012_x_at) / Fold change /veh TNFAIP8L3 (11732012_x_at) / RFU MBOAT4 (11741988_at) / Fold change /veh MBOAT4 (11741988_at) / RFU 11764193_at / Fold change /veh 11764193_at / RFU TMEM53 (11763286_at) / Fold change /veh TMEM53 (11763286_at) / RFU MAGEB2 (11727129_at) / Fold change /veh MAGEB2 (11727129_at) / RFU TMEM200A (11744735_a_at) / Fold change /veh TMEM200A (11744735_a_at) / RFU CCDC152 (11751479_a_at) / Fold change /veh CCDC152 (11751479_a_at) / RFU FAM211A (11726209_a_at) / Fold change /veh FAM211A (11726209_a_at) / RFU RGS16 (11746705_a_at) / Fold change /veh RGS16 (11746705_a_at) / RFU VCAN (11755009_s_at) / Fold change /veh VCAN (11755009_s_at) / RFU RHOB (11743442_s_at) / Fold change /veh RHOB (11743442_s_at) / RFU RGS16 (11720943_a_at) / Fold change /veh RGS16 (11720943_a_at) / RFU RGS16 (11720944_at) / Fold change /veh RGS16 (11720944_at) / RFU, VPS4B / Fold change vs veh, VPS4B / RFU, CREB1 / Fold change vs veh, CREB1 / RFU, DNAJC13 / Fold change vs veh, DNAJC13 / RFU, GNAQ / Fold change vs veh, GNAQ / RFU, CDK5R1 / Fold change vs veh, CDK5R1 / RFU, ZRANB3 / Fold change vs veh, ZRANB3 / RFU, CUL4A / Fold change vs veh, CUL4A / RFU, CCNY / Fold change vs veh, CCNY / RFU, UFL1 / Fold change vs veh, UFL1 / RFU, COG3 / Fold change vs veh, COG3 / RFU, DIAPH2 / Fold change vs veh, DIAPH2 / RFU, SKA2 / Fold change vs veh, SKA2 / RFU, AFF3 / Fold change vs veh, AFF3 / RFU, LMF1 / Fold change vs veh, LMF1 / RFU, IPO11 / Fold change vs veh, IPO11 / RFU, DFFB / Fold change vs veh, DFFB / RFU, FOXP1 / Fold change vs veh, FOXP1 / RFU, CARD8 / Fold change vs veh, CARD8 / RFU, STRN3 / Fold change vs veh, STRN3 / RFU, ADK / Fold change vs veh, ADK / RFU, RASSF2 / Fold change vs veh, RASSF2 / RFU, WIPF1 / Fold change vs veh, WIPF1 / RFU, LARP1B / Fold change vs veh, LARP1B / RFU, RASA1 / Fold change vs veh, RASA1 / RFU, RB1 / Fold change vs veh, RB1 / RFU, PPFIA1 / Fold change vs veh, PPFIA1 / RFU, MAT2A / Fold change vs veh, MAT2A / RFU, CCT5 / Fold change vs veh, CCT5 / RFU, WDR92 / Fold change vs veh, WDR92 / RFU, CUX1 / Fold change vs veh, CUX1 / RFU, TTC7A / Fold change vs veh, TTC7A / RFU, TMEM135 / Fold change vs veh, TMEM135 / RFU, DEPTOR / Fold change vs veh, DEPTOR / RFU, CPM / Fold change vs veh, CPM / RFU, DNAJB6 / Fold change vs veh, DNAJB6 / RFU, CACNA2D3 / Fold change vs veh, CACNA2D3 / RFU, DTX4 / Fold change vs veh, DTX4 / RFU, TFCP2 / Fold change vs veh, TFCP2 / RFU, GMCL1 /// GMCL1P1 / Fold change vs veh, GMCL1 /// GMCL1P1 / RFU, AEBP2 / Fold change vs veh, AEBP2 / RFU, SNHG1 /// SNORD22 /// SNORD25 /// SNORD26 /// SNORD27 /// SNORD28 /// SNORD29 /// SNORD31 / Fold change vs veh, SNHG1 /// SNORD22 /// SNORD25 /// SNORD26 /// SNORD27 /// SNORD28 /// SNORD29 /// SNORD31 / Fold change (Aza/veh), C12orf56 (ProbeSet 11735607_a_at) / Fold change (ACY-1035/veh), C12orf56 (ProbeSet 11735607_a_at) / Fold change (Aza/veh), FGFR1OP (ProbeSet 11751329_s_at) / Fold change (ACY-1035/veh), FGFR1OP (ProbeSet 11751329_s_at) / Fold change (Aza/veh), VPS36 (ProbeSet 11739960_a_at) / Fold change (ACY-1035/veh), VPS36 (ProbeSet 11739960_a_at) / RFU SYPL1 (11715823_x_at) / Fold change /veh SYPL1 (11715823_x_at) / RFU IGFBP7 (11715501_s_at) / Fold change /veh IGFBP7 (11715501_s_at) / RFU REEP3 (11722064_at) / Fold change /veh REEP3 (11722064_at) / RFU IGLL1 (11728026_x_at) / Fold change /veh IGLL1 (11728026_x_at): dose or concentration left out as unconfirmed
Settings: ProbeSet 11728676_at; LIST B

Nc1ncn([C@@H]2O[C@H](CO)[C@@H](O)[C@H]2O)c(=O)n1 [azacitidine]
Fold change vs veh, MED14: 0.97
